Assay results: US10106529B2, “Compounds that modulate intracellular calcium” (CalciMedica, Inc., priority 2011, dated 2018)

Columns and labels:
[1] = biological target: T1, Orai1/STIM1 (Homo sapiens, UniProt Q96D31); assay: Fluorescence-based assay of store-operated calcium entry in Orai1/STIM1 stable cells; assay type: cell-based; settings: HEK-293 cells stably expressing human STIM1 and Orai1; inhibition of Peak-Basal fluorescence signal after calcium addition; read-out: Orai1/STIM1 (IC50, μmol)
T1 construct: c-myc (C); expressed in transfected cells; host or cells: HEK-293 cells stably expressing recombinant human STIM1 and Orai1
T1 sequence (Q96D31 whole entry): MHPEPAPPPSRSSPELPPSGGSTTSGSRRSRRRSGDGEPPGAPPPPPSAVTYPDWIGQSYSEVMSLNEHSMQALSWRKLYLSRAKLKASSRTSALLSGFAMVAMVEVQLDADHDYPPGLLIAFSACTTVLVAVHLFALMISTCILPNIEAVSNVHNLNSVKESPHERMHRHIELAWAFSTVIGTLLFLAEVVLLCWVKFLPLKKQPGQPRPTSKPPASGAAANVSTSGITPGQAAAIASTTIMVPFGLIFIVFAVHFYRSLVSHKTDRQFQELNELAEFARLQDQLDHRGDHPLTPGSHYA
Text: (§1) Fluorescence-based assays are used for screening the compounds described herein, such as compounds of Formulas (I), (IA), (II), (IIA), (III), (IIIA), (IV), (IVA), (V), (VA), (VI), (VIA), (VII), (VIIA), (VIII), (VIIIA), (IX), (IXA), (X), (XI), (XIA), (XII), or (XIIA) which modulate intracellular calcium.
A. Fluorescence-Based Assay of Store-Operated Calcium Entry in Orai1/STIM1 Stable Cells.
Cells stably expressing recombinant human STIM1 and Orai1 are generated by transfecting a human Orai1 expression plasmid (pcDNA3.1-Orai1-cmyc) into HEK-293 cells stably overexpressing human STIM1 (Roos et al. 2005 JCB 169(3): 435-445). Colonies of cells stably expressing both STIM1 and Orai1 proteins are selected and then subcloned by limiting dilution. Cells were cultured at 37° C./6% CO2 in complete medium with 10% FBS and appropriate selection markers.
The day prior to performing the assay Orai1/STIM1 stable cells are plated in 50 μL of complete medium at 90-95% confluence in a 384 well plate. Cells are grown at 37° C./6% CO2 overnight. On the day of the assay, 1.5 μM fluo-4-AM (Invitrogen) in complete medium is added to the cells, which are then incubated for 1 hour at RT. Cells are washed once in Ca^2+-free HBSS (Hank's buffered saline solution) and 35 μl of Ca^2+-free HBSS is added to each well. Test compounds are added to wells in a 10 μL Ca^2+-free HBSS solution, prepared at 4.5× the desired final concentration, and incubated for 30 minutes at RT. The initial baseline fluorescence signal is then measured with a FLIPR^384 (Molecular Devices) plate reader. Calcium entry is initiated by adding 5 μl of 10×CaCl2 (10 mM) in HBSS, and changes in cellular fluorescence are measured with the FLIPR^384 plate reader. In each well, the magnitude of the fluorescence signal as a result of calcium entry into the cell is determined by calculating the difference between the peak fluorescence signal measured after calcium addition and the initial baseline fluorescence signal (designated Peak-Basal). IC50 values are typically calculated as the concentration that inhibited 50% of the Peak-Basal signal.

[2] = system: RBL-2H3 cells; assay: Fluorescence-based assay of store-operated calcium entry in RBL-2H3 cells; assay type: cell-based, rat; settings: Rattus norvegicus, thapsigargin, inhibition of Upslope of fluorescence after calcium addition, read-out: RBL-2H3 (IC50, μmol)
Experimental: as §1
B. Fluorescence-Based Assay of Store-Operated Calcium Entry in RBL-2H3 Cells.
RBL-2H3 cells are obtained from ATCC and maintained in complete medium with 10% FBS at 37° C./6% CO2.
The day prior to performing the assay, RBL-2H3 cells are plated in 50 μL of complete medium in a 384 well plate. Cells are grown at 37° C./6% CO2 overnight and grow to 50-60% confluence by the next day. On the assay day, 1.5 µM Fluo-4-AM dye (Invitrogen) in complete medium is added and incubated for 1 hour at RT. Cells are washed twice in Ca^2+-free HBSS buffer and 35 μL Ca^2+-free HBSS buffer is added to each well. 10 μL of a test compound prepared in a Ca^2+-free HBSS solution at 4.5× of the desired concentration is added to a well and incubated for 5 minutes at RT. 10 μL of thapsigargin prepared in a Ca^2+-free HBSS solution at 5.5× of the desired concentration (5.5 uM) is added to each well and incubated for an additional 25 minutes. The initial baseline fluorescence signal is measured with a FLIPR^384 (Molecular Devices) plate reader. 5 μL of 12× calcium in HBSS (12 mM) is added and changes in cellular fluorescence are measured with the FLIPR^384 plate reader. In each well, the change in the fluorescent signal as a function of time due to calcium entry into the cell is determined by calculating the difference between the fluorescent signal measured 7 seconds after calcium addition and the initial baseline fluorescence signal at time zero (t=0). This parameter is designated Upslope. The IC50 value is calculated as the concentration at which 50% of the Upslope is inhibited.

SMILES | IC50 [1] [nM] | IC50 [2] [nM]
Fc1cc(F)c(CNc2ccc(Oc3ccccc3C(F)(F)F)cn2)c(F)c1 [Compound 134] | < 600 | < 600
Fc1cccc(F)c1CNc1ccc(Oc2ccccc2C(F)(F)F)cn1 [Compound 135] | < 600 | < 600
Cn1nc(C(F)(F)F)cc1-c1ccc(NCc2ccccc2F)nc1N [Compound 143, N^2-(2-fluorobenzyl)-5-(1-methyl-3-(trifluoromethyl)-1H-pyrazol-5-yl)pyridine-2,6-diamine] | < 600 | < 600
